Consider 3 compounds from patent US9181577B2, “Treatment of chronic pelvic pain syndrome” (Northwestern University, priority 2010, dated 2015).

This test deals with pelvic pain behavior in EAP NOD mice. Briefly: Mast cell function inhibitors on established pelvic pain behavior in EAP model (von Frey tactile allodynia). The format is in vivo. As to conditions: 10 mg/kg each drug, intraperitoneal, at day 10 after PAg injection; tested one hour after drug administration. How it is done: Mice injected with rat prostate antigen (PAg) were tested at baseline and 10 days after injection for the development of pain behavior. Mice were treated at day 10 by intraperitoneal injection with saline (Control, A), 10 mg/kg each of cetrizine (H1, B), ranitidine (H2, C), Cromolyn sodium (MC stabilizer, D) or all three drugs (Combination, E) in a 200 μl volume. Following blinding of treatment and control groups, pelvic pain behavior was tested one hour after drug administration.
The experimental autoimmune prostatitis (EAP) model was selected for experiments conducted during development of embodiments of the present invention. Autoimmunity is one of the etiologies for patients with CPPS. Rat prostate antigen instillation in NOD mice provokes a chronic inflammation that is multifocal and evenly distributed in all the prostatic lobes. Pelvic pain was examined in NOD and C57BL/6 (B6) mice using quantitative behavior testing methods to assess tactile sensitivity of the suprapubic region. […] When expressed as increase in pain from baseline there was an approximately 350% increase in pain behavior compared to sham controls (SEE FIG. 1). This indicates the development of chronic pelvic pain in EAP mice and is the first report of chronic pain symptoms in an animal model of prostatitis.
Pelvic pain behavior in the EAP model was inhibited following the establishment of pain. EAP was induced in NOD mice and pelvic pain behavior at baseline and 10 days after disease onset was measured. Mice were administered a mast cell stabilizer, cromolyn sodium; a histamine receptor 1 antagonist, cetirizine; a histamine receptor 2 antagonist, ranitidine; and a combination of all three pharmacological agents or saline as control. Pelvic pain behavior was tested one hour after drug administration.
For `O=C(O)COCCN1CCN(C(c2ccccc2)c2ccc(Cl)cc2)CC1` (stereo not drawn) [cetirizine], the “reduction of pain behavior” value was determined as 13.6%. As to `O=C(O)c1cc(=O)c2c(OCC(O)COc3cccc4oc(C(=O)O)cc(=O)c34)cccc2o1` [cromolyn sodium], the “reduction of pain behavior” value is reported as 39.6%. Regarding `CNC(=C[N+](=O)[O-])NCCSCc1ccc(CN(C)C)o1` [ranitidine], the “reduction of pain behavior” value came to 15.9%.
